Assay results from ChEMBL document CHEMBL1201862, “PubChem BioAssay data set” (2004).
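Five compound concentrations were applied to cells in 96-well plates for 48 hours; endpoints were derived by simple linear interpolation of the resulting dose-response curve. GI50 is the concentration that inhibits growth by half.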 The source made the active and inactive calls. Cut-off read from the data, not from the text of the source: active = GI50 up to about 1.1 µM and inactive = higher.

Columns and labels:
Assay in all cases: DTP human tumour cell line panel, 48 h
[1] = tested on: SN12C
[2] = tested on: UO-31
[3] = tested on: ACHN
[4] = tested on: NCI/ADR-RES
[5] = tested on: COLO 205
[6] = tested on: OVCAR-5
[7] = tested on: LOX IMVI
[8] = tested on: SF-295
[9] = tested on: K562
[10] = tested on: OVCAR-3
[11] = tested on: SW-620
[12] = tested on: DU-145
[13] = tested on: MDA-MB-231
[14] = tested on: CCRF-CEM
[15] = tested on: MDA-MB-435
[16] = tested on: NCI-H522
[17] = tested on: SK-OV-3
[18] = tested on: CAKI-1
[19] = tested on: SF-268

Measured: GI50

N#CC12C(=O)N3C(=NC(c4ccccc4)NC3c3ccccc3)C1(C#N)C(c1ccccc1)NC1=C2CCC1 (stereo not given)
inactive: [1] > 100 µM | [2] > 100 µM | [3] > 100 µM | [4] > 100 µM | [5] > 100 µM | [6] > 100 µM | [7] > 100 µM | [8] > 100 µM | [9] 63.5 µM | [10] > 100 µM | [11] > 100 µM | [12] > 100 µM | [13] > 100 µM | [14] > 100 µM | [15] > 100 µM | [16] > 100 µM | [17] > 100 µM | [18] > 100 µM | [19] > 100 µM

CN1CCN(c2nc3c(c(=O)n(C)c(=O)n3C)n2C)CC1
inactive: [1] > 100 µM | [2] > 100 µM | [3] > 100 µM | [4] > 100 µM | [5] > 100 µM | [6] > 100 µM | [7] > 100 µM | [8] > 100 µM | [9] > 100 µM | [10] > 100 µM | [11] > 100 µM | [12] > 100 µM | [13] > 100 µM | [14] > 100 µM | [15] > 100 µM | [16] > 100 µM | [17] > 100 µM | [18] > 100 µM | [19] > 100 µM

CCCN(CCC)C(=S)N/N=C(/C)c1ccccc1O
inactive: [1] 5.82 µM | [2] 4.11 µM | [3] 3.97 µM | [4] 1.57 µM | [5] 6.46 µM | [6] 10.3 µM | [7] 3.46 µM | [8] 6.41 µM | [9] 4.06 µM | [10] 2.51 µM | [11] 5.55 µM | [12] 6.84 µM | [13] 9.4 µM | [14] 2.96 µM | [15] 8.38 µM | [16] 1.19 µM | [17] 10.2 µM | [18] 8.49 µM | [19] 4.42 µM

Cc1n[nH]c(=O)n1/N=C\CC/C=N\n1c(C)n[nH]c1=O
inactive: [1] > 100 µM | [2] > 100 µM | [3] > 100 µM | [4] > 100 µM | [5] > 100 µM | [6] > 100 µM | [7] > 100 µM | [8] > 100 µM | [9] > 100 µM | [10] > 100 µM | [11] > 100 µM | [12] > 100 µM | [13] > 100 µM | [14] > 100 µM | [15] > 100 µM | [16] > 100 µM | [17] > 100 µM | [18] > 100 µM | [19] > 100 µM

N#CCCOc1cccc(C2(N3CCCCC3)CCCCC2)c1
inactive: [1] > 100 µM | [2] > 100 µM | [3] > 100 µM | [4] > 100 µM | [5] > 100 µM | [6] > 100 µM | [7] > 100 µM | [8] > 100 µM | [9] > 100 µM | [10] > 100 µM | [11] > 100 µM | [12] > 100 µM | [13] > 100 µM | [14] > 100 µM | [15] > 100 µM | [16] > 100 µM | [17] > 100 µM | [18] > 100 µM | [19] > 100 µM

C=C1C(=O)OC2C1CCC(=C)C1CC(O)C(=C)C12 (stereo not given)
inactive: [1] 16.2 µM | [2] 15.3 µM | [3] 3.18 µM | [4] 24 µM | [5] 2.55 µM | [6] 11.5 µM | [7] 7.52 µM | [8] 38.5 µM | [9] 5.09 µM | [10] 13.3 µM | [11] 16 µM | [12] 15 µM | [13] 16.3 µM | [14] 2.21 µM | [15] 19.5 µM | [16] 2.58 µM | [17] 33.8 µM | [18] 4.28 µM | [19] 15.4 µM

COc1cc(OC)c(-c2cc(=O)c3c(OC)c(OC)c(OC)c(OC)c3o2)cc1OC
inactive: [1] > 100 µM | [2] 20.8 µM | [3] > 100 µM | [4] 21.9 µM | [5] > 100 µM | [6] > 100 µM | [7] > 100 µM | [8] 28.1 µM | [9] > 73.1 µM | [10] 30.2 µM | [11] > 100 µM | [12] > 100 µM | [13] 19.8 µM | [14] > 28.4 µM | [15] > 100 µM | [16] 17.7 µM | [17] > 100 µM | [18] 36.1 µM | [19] > 100 µM

COc1ccc(OC)c(NS(=O)(=O)c2ccc3nc(C)n(NS(=O)(=O)c4cc(OC)ccc4OC)c(=O)c3c2)c1
inactive: [1] > 100 µM | [2] 87.9 µM | [3] > 100 µM | [4] > 100 µM | [5] > 100 µM | [6] > 100 µM | [7] 77.6 µM | [8] > 100 µM | [9] 32.6 µM | [10] > 100 µM | [11] 96.4 µM | [12] > 100 µM | [13] > 100 µM | [14] 75.7 µM | [15] 14.3 µM | [16] > 100 µM | [17] > 100 µM | [18] > 100 µM | [19] > 100 µM

CCOC(=N)n1c(=O)n(C2=NCCN2)c2ccccc21
inactive: [1] > 100 µM | [2] > 100 µM | [3] > 100 µM | [4] > 100 µM | [5] > 100 µM | [6] > 100 µM | [7] > 100 µM | [8] > 100 µM | [9] > 100 µM | [10] > 100 µM | [11] > 100 µM | [12] > 100 µM | [13] > 100 µM | [14] > 100 µM | [15] > 100 µM | [16] > 100 µM | [17] > 100 µM | [18] > 100 µM | [19] > 100 µM

CCOC(=O)C1C2CCC1CC(=NNc1ccc([N+](=O)[O-])cc1[N+](=O)[O-])C2 (stereo not given)
inactive: [1] > 50 µM | [2] > 50 µM | [3] > 50 µM | [4] 4.38 µM | [5] > 50 µM | [6] > 50 µM | [7] > 50 µM | [8] 8.99 µM | [9] 29.2 µM | [10] > 50 µM | [11] > 50 µM | [12] > 50 µM | [13] > 50 µM | [14] > 50 µM | [15] > 50 µM | [16] > 50 µM | [17] > 50 µM | [18] 14.8 µM | [19] > 50 µM
